Experimental data taken from article doi:10.1101/2024.12.24.629646v1 (biorxiv, 2024).

Molecular target: mGlu5 WT (Homo sapiens, UniProt P41594)
Assay: cell-based
Parameters: species or system HEK293

Sequence of mGlu5 WT (P41594 whole entry): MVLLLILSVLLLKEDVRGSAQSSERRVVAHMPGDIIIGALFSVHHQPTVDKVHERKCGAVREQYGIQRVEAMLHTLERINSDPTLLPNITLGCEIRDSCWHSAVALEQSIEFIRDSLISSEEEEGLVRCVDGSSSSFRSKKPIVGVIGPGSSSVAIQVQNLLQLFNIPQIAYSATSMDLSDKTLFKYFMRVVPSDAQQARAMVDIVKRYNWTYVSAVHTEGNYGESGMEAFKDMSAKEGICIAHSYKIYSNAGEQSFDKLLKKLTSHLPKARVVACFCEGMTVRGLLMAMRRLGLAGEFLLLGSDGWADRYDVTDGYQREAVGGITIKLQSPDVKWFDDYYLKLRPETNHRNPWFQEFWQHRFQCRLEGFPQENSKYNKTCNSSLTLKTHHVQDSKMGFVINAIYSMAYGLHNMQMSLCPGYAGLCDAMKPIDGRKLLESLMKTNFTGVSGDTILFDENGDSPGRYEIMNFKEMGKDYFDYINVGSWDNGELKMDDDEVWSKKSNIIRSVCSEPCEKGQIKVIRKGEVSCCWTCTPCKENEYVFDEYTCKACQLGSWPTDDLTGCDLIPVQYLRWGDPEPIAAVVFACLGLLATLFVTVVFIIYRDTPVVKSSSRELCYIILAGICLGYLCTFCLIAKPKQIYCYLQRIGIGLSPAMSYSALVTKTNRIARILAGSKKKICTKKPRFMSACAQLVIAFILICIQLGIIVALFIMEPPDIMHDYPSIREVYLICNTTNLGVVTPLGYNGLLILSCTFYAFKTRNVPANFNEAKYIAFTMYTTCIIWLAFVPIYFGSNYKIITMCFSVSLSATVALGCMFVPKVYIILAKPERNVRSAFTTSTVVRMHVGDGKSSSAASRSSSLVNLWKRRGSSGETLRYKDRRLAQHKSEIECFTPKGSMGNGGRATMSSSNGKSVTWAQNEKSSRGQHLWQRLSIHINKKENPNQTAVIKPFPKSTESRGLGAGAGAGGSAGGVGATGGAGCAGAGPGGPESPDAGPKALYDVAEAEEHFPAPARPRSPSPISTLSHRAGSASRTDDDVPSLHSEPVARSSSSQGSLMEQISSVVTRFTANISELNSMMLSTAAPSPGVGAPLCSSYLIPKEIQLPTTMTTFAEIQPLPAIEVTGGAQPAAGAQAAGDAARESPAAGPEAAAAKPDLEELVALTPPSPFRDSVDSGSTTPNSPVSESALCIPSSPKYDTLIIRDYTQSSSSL

Structure (SMILES)	EC50
C[C@@H](NC(=O)c1ccc(C#Cc2cccc(F)c2)cn1)C(C)(C)O [compound 1, VU0424465]	5.25 nM
C[C@@H](NC(=O)c1ccc(/N=N/c2cccc(F)c2)cn1)C(C)(C)O [compound 2, (R,E)-5-((3-fluorophenyl)diazenyl)-N-(3-hydroxy-3-methylbutan-2-yl)picolinamide]	1170 nM
